One experiment has as its system nNOS. Kind of experiment: nNOS immunohistochemistry of retinal whole mounts 3 hours after intravitreal injection. It counts as in vivo, guinea pig (Cavia porcellus). How it is done: Two experimental protocols were used. In Experiment 1, young guinea pigs were randomly divided into three drug treatment groups: no injection (n=14), vehicle (n=14) and 0.2 mM L-arginine (n=16). Animals in the latter two groups received a daily 10 μl intravitreal injection in one eye at 7, 8 and 9 days of age (Table 2). […] The fellow eye was untreated. At 10 days of age, the −6D lens was removed, animals were cyclopleged and refractive error was measured in both eyes. In Experiment 2, sixteen guinea pigs received an intravitreal injection of either vehicle (n=8) or 0.2 mM L-arginine (n=8) into their untreated eye at 16 days of age (Table 2). Injections were made 1 hour after the beginning of their 12 hr light cycle. 3 hours after injection, light adapted animals were euthanized, and the injected eye removed and processed using immunohistochemistry.
To make the L-arginine (LA), 217.75 mg of LA (Sigma, A5006) was added to 10 ml of isotonic saline (Pfizer) to create 125 mM fresh stock each day. Hydrochloric acid was used to lower the stock to a pH of 7.4. The stock was diluted with isotonic saline to produce a final dose of 0.185 mM of LA (˜0.2 mM) at the level of the retina based on a vitreous volume of 125 μl and an injection volume of 10 μl. Vehicle injections consisted of 10 μl of isotonic saline (pH 7.4).
Guinea pigs were briefly anaesthetised with isoflurane in oxygen and intravitreal injections were made through the pars plana ˜1 mm posterior to the limbus at an angle of approximately 40° to avoid contact with the crystalline lens and retina. Drugs were delivered using a 0.3 ml syringe (Diabetic BD UltraFine II) with a 31 gauge needle. After the injection, antibiotic gel (Conoptal) was applied lightly to the cornea, and animals recovered rapidly in a warm darkened box.
In Experiment 2, three hours after their intravitreal injection, animals were anaesthetised with isoflurane in oxygen and then euthanized with an […] injection of sodium pentobarbitone (160 mg/kg; Lethabarb) into the heart. The eye that had received treatment was then enucleated. […]

Experiment [1] has as its system normal eye growth in guinea pigs. Kind of experiment: Eye drops on normal growth and emmetropization (no lens wear). The format is in vivo, guinea pig (Cavia porcellus). The following applies: eye drops twice daily 9-16 days of age. How it is done:
Two experimental protocols were employed (see Table 4). In Experiment 1, young guinea pigs wore a −6D lens on one eye from 5-12 days of age. They were randomly divided within each litter into two groups of 10 animals each, and received either a drop of L-Arginine (100 mM, 1.7%) in Saline (pH 7.4) or Saline alone (0.9%, pH 7.4) twice per day in the eye wearing the lens (Table 4). Drops were administered at the beginning of their light cycle and again approximately 6 hrs later in the middle of their day cycle. Lenses were removed during the drop administration which occurred under dim red light or in darkness. A single large drop was bathed on the cornea for 3 min in the lens-wearing eye in hand held animals. A clean lens was then reintroduced onto the eye. In Experiment 2, 14 guinea pigs were given eye drops in the same manner as in Experiment 1, but in both eyes and without any lens-wear, to determine the effect of the eye drops on normal eye growth. Animals received one drop of either 1.7% L-arginine (n=7) or atropine (Minims Atropine Sulphate 1%, Bausch & Lomb, preservative free, n=7) in one eye and saline (0.9%) in the other eye twice per day from 9-16 days of age.
In Experiment 1, at the end of the lens-wearing period, at 12 days of age just before the morning lights came on, both eyes were cyclopleged (1% Cyclopentolate—to paralyse the focussing muscles of the eye to a resting state) and 1.25 hours later, refractive error (RE) was measured. Animals were then anaesthetised with gaseous anaesthetic (1.5% isoflurane in oxygen) and eye length measures were taken in both eyes with high frequency ultrasound as described in Example 1. Biometry measures were also taken in the same manner before the lens wear period at 5 days of age. [No refractive measures were done at 5 days of age as cycloplegia could have interfered with the drug or lens response]. In Experiment 2, refractive error and eye length using ultrasound were measured in the same manner at 17 days of age, 24 hours after the previous drop was administered.
After cycloplegia was induced, refractive error was measured in each eye using an Autorefractor (Nidek AR-20, Japan). The spherical equivalent was calculated as the average of the sphere plus half the cylinder as is normal in clinical practice. All reported refractive errors are the spherical equivalent. Next, ocular length was measured using high frequency ultrasound (20 MHz) as previously described (McFadden et al, 2004). At least 20 traces were recorded for each eye and distances were averaged for at least 10 of these recordings. Peaks from the recordings were selected for the back of the cornea, the crystalline lens, and the vitreous chamber, and the layers at the back of the eye: the retina, choroid, and sclera. Ocular length was defined as the summed measurement from the front of the cornea to the back of the sclera.
Differences between the two eyes were analysed by a 2-tailed T-tests. The mean of calculated differences between the two eyes is referred to as relative myopia or relative ocular length and the difference in the change in ocular length in the treated compared to the untreated eye as relative growth.

Turning to `N=C(N)NCCC[C@H](N)C(=O)O` [L-arginine], the “density of NOS displaced amacrine cells (DACs) vs vehicle injected eyes” value in the experiment on nNOS (single intravitreal 0.2 mM L-arginine, 3 hours after injection, each eccentricity from the optic nerve, p<0.001) was “significantly higher density”. Further, in the experiment on nNOS (single intravitreal 0.2 mM L-arginine, 3 hours after injection, p<0.001), the “density of Type I amacrine cells expressing nNOS vs vehicle injected group” value is “significantly higher density”. Besides, the “increase of expression of nNOS in the retina” value in the experiment with nNOS (single intravitreal injection of L-arginine (0.2 mM)) is “approximately 20%”. The “ocular length on average” value in experiment [1] (measured at 17 days, p=0.22 between groups) came out at 8.124 mm. In experiment [1] (measured at 17 days, p=0.32 between groups), the “mean refractive error, both eyes averaged” value is recorded as “+4.43”. In experiment [1] (no lens, 1.7% LA (p=0.69) or 1% Atropine (p=0.40)), the “effect on refractive error (drug eye vs saline eye)” value is on record as “did not affect the refractive error of the eye”. Also, in experiment [1] (LA p=0.39, ATR p=0.42), the “difference between the two eyes in ocular length (drug eye vs saline control eye)” value is −33 μm.

These data come from patent publication US10945980B2, “Treatment for myopia” (The University of Newcastle, priority 2016, dated 2021).
